The values that follow come from US12186312B2, “Sleep improving agent” (Amino Up Co., Ltd., priority 2016, dated 2025).

In one test the test system is male Wistar rats. Put plainly: Light period activity level after 8-hour phase advance (model of mild sleep disorder), dietary administration. The test is classed as in vivo, rat. The conditions noted are these: for activity level of Day 1 and Day 2 during the light period compared with the Control group: Dunnett test with mixed model for repeated measures; for activity level on Day 1, light period (12 hours) after the phase advance compared with the Control group: Dunnett test. The source says: Firstly, 7-week old male Wistar rats were implanted intraperitoneally with a small activity meter (NanoTag®, Kissei Comtech Co., Ltd.). Subsequently, after a week of recovery period, the rats were divided into four groups (Control group, Compound A-1 group, Compound A-2 group, and Compound A-3 group; n=17 each) shown in Table 1 by stratified randomization assignment using body weight as an index, and test diets were dietary administered to them. At the 15th day from the start of dietary administration, the light/dark cycle was advanced by 8 hours, and after that, dietary administration of test diets was continued for 2 weeks. The light/dark cycle of the breeding environment excluding the phase advance date was set to 12 hours cycle, and the illuminance of the light period was set to be approximately 200 1× (185-230 1×). In this model of mild sleep disorder with the phase advance, the influence of test feed administration on the light period activity level after the phase advance was examined.
The test was carried out by a two-sided test, the significance level of the test was set to 5%, and the trend difference was 10% on both sides. For the analysis, SAS software release 9.3 (manufactured by SAS Institute Japan Ltd.) was used.

Test [1] concerns HSP70 mRNA expression in human promyelocytic leukemia cells (HL-60 cells). Put plainly: Evaluation of HSP70 mRNA expression-inducing activity in HL-60 cells. The conditions noted are these: for concentration at which HSP70 mRNA expression inducing ability was increased up to 150% relative to the control: 4 hours at 37° C., corrected with beta 2 microglobulin gene; for HSP70 mRNA expression as compared with the control: 4 hours, FIGS. 1-3, percentages for the control. Type of test: cell-based. As for the experimental part:
The HSP70 expression-inducing activity by Compounds 1-3 was evaluated by measuring a HSP70 mRNA expression level.
Human promyelocytic leukemia cells (HL-60 cells) was suspended in RPMI 1640 medium supplemented with 10% fetal bovine serum, and was transferred into a 1.5 mL tube (45,000 cells/0.9 mL). To the tube was added 0.1 mL of each sample that had been prepared in a 1% DMSO solution and the tube was allowed to stand at 37° C. for 4 hours. To a control was added 0.1 mL of 1% DMSO solution. After cultured for 4 hours, the cells was centrifuged by a small refrigerated centrifuge (1,000 g×5 minutes) to precipitate the HL-60 cells. After removal of the supernatant, the cells were lysed in 0.25 mL Trizol (manufactured by Thermo Fisher Scientific) and then total RNA was extracted according to the protocol. The RNA was dissolved in RNase-free water, and the concentration of the RNA (wave length 260 nm) was measured by using a microvolume spectrophotometer NanoDrop 2000/2000c (manufactured by Thermo Fisher Scientific). The RNA solution was diluted with RNase-free water so as to have a concentration of 50 ng/mL, and then cDNA was synthesized by using ReverTra Ace® qPCR RT Kit (manufactured by TOYOBO). The reaction liquid (10 μl) after the reverse transcription was diluted with RNase-free water so as to be 100 μL, and then used as a template for PCR. Beta 2 microglobulin gene was used as an internal control gene for correction of the HSP70 gene expression. The primer sequences of genes used for the PCR reaction are as follows.
The expression was analyzed by using CFX Connect Real-Time PCR Detection System (manufactured by Bio-rad). 10 μL of the PCR reaction liquid was incubated at 95° C. for 3 minutes (initial denaturation), followed by repetition of 55 cycles comprising denaturation at 95° C. for 10 seconds, and annealing and extension at 57.8° C. for 30 seconds. Finally, the melting curve was measured every 0.2° C. in the range from 65° C. to 95° C. Expression levels of HSP70 gene and internal standard gene were analyzed using Bio-Rad CFX Manager 3.1.

In the case of `CC(C)C[C@@H]1NC(=O)[C@@H]2CCCN2C1=O` [Compound 1, (3S,8aS)-3-isobutylhexahydropyrrolo[1,2-a]pyrazine-1,4-dione], the “activity level of Day 1 and Day 2 during the light period compared with the Control group” value with male Wistar rats (Compound A-2 group: MF containing 0.005% of Compound A (6.25 mg/kg BW/day), P=0.0481) was “significantly inhibited the activity level”; in the test with male Wistar rats (Compound A-3 group: MF containing 0.05% of Compound A (62.46 mg/kg BW/day), P=0.0978) it was “tendency to suppress the activity level”. Besides, the “activity level on Day 1, light period (12 hours) after the phase advance compared with the Control group” value is “significantly suppressed the activity level” with male Wistar rats (Compound A-2 group: MF containing 0.005% of Compound A (6.25 mg/kg BW/day), P=0.016) and “tended to suppress the activity level” in the test on male Wistar rats (Compound A-3 group: MF containing 0.05% of Compound A (62.46 mg/kg BW/day), P=0.0536). The “concentration at which HSP70 mRNA expression inducing ability was increased up to 150% relative to the control” value in test [1] was 0.083 mg/mL. Further, in test [1], the “HSP70 mRNA expression as compared with the control” value is “enhanced mRNA expression of HSP70 gene”.
For the compound `O=C1N[C@@H](Cc2ccccc2)C(=O)N2CCC[C@@H]12` [Compound 2, (3S,8aS)-3-benzylhexahydropyrrolo[1,2-a]pyrazine-1,4-dione], in test [1], the “concentration at which HSP70 mRNA expression inducing ability was increased up to 150% relative to the control” value is 0.045 mg/mL and the “HSP70 mRNA expression as compared with the control” value is “enhanced mRNA expression of HSP70 gene”.
For `O=C1N[C@@H](Cc2ccc(O)cc2)C(=O)N2CCC[C@@H]12` [Compound 3, (3S,8aS)-3-(4-hydroxybenzyl)hexahydropyrrolo[1,2-a]pyrazine-1,4-dione], in test [1], the “concentration at which HSP70 mRNA expression inducing ability was increased up to 150% relative to the control” value was found to be 0.101 mg/mL and the “HSP70 mRNA expression as compared with the control” value is given as “enhanced mRNA expression of HSP70 gene”.
